Assay results taken from patent publication US6838565B2, “Substituted benzoic acid amides, their preparation and their use as pharmaceutical compositions” (Boehringer Ingelheim Pharma GmbH & Co. KG, priority 2002, dated 2005).
Structures can show the parent of a compound that is named as a salt.

Molecular target: T1, human factor Xa (Homo sapiens, UniProt P00742)
T1 construct: released from the colourless chromogenic substrate by human factor Xa; purchased Roche
Assay: Inhibition of factor Xa, enzyme-kinetic measurement with chromogenic substrate (Chromozym X)
Assay type: biochemical
Details: pNA release from Chromozym X 200 μMol/l, 405 nm, 37° C., pH 8.0, factor Xa 0.175 U/ml
Method: Method: Enzyme-kinetic measurement with chromogenic substrate. The quantity of p-nitroaniline (pNA) released from the colourless chromogenic substrate by human factor Xa is determined photometrically at 405 nm. It is proportional to the activity of the enzyme used. The inhibition of the enzyme activity by the test substance (in relation to the solvent control) is determined at various concentrations of test substance and from this the IC50 is calculated, as the concentration which inhibits the factor Xa used by 50%.
• Tris(hydroxymethyl)-aminomethane buffer (100 mmol) and sodium chloride (150 mmol), pH 8.0 • Factor Xa (Roche), spec. activity: 10 U/0.5 ml, final concentration: 0.175 U/ml for each reaction mixture • Substrate Chromozym X (Roche), final concentration: 200 μMol/l for each reaction mixture • Test substance: final concentration 100, 30, 10, 3, 1, 0.3, 0.1, 0.03, 0.01, 0.003, 0.001 μMol/l Procedure
10 μl of a 23.5-times concentrated starting solution of the test substance or solvent (control), 175 μl of tris(hydroxymethyl)-aminomethane buffer and 25 μl of a 1.65 U/ml Factor Xa working solution are incubated for 10 minutes at 37° C. After the addition of 25 μl of Chromozym X working solution (1.88 μmol/l) the sample is measured in a photometer (SpectraMax 250) at 405 nm for 150 seconds at 37° C.
• 1. […]

T1 sequence (P00742 235-488 limits assumed): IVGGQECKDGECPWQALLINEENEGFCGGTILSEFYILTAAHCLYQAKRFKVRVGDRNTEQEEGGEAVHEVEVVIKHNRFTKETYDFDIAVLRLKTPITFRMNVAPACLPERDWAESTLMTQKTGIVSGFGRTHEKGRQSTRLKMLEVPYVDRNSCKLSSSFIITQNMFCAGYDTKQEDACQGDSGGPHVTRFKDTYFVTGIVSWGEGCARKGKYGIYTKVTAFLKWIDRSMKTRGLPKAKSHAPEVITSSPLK
T1 sequence (P00742 41-179 partner limits assumed): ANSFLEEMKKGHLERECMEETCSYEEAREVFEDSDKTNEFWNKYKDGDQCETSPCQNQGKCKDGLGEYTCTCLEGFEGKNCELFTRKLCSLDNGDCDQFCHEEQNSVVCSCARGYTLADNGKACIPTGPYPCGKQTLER

IC50 | Compound
0.008 µM | Cc1cc(C(=O)NC(Cc2nnn[nH]2)c2cccc(C(=N)N)c2)ccc1C(=O)N1CC=CC1 (centres unmarked) [(1), N-[1-(3-amidino-phenyl)-2-(1H-tetrazol-5-yl)-ethyl]-4-(2,5-dihydro-pyrrol-1-yl-carbonyl)-3-methyl-benzamide-hydrochloride]
0.026 µM | Cc1cc(C(=O)NC(Cc2nnn[nH]2)c2cccc(C(=N)N)c2)ccc1C(=O)N1CCCC1 (centres unmarked) [(2), N-[1-(3-amidino-phenyl)-2-(1H-tetrazol-5-yl)-ethyl]-3-methyl-4-(pyrrolidin-1-carbonyl)-benzamide-hydrochloride]
